Columns and labels:
[1] = test system: barnyardgrass; test: Test C flooded paddy test; format: in vivo, Echinochloa crus-galli; settings: for Plant response rating, Barnyardgrass: 500 g ai/ha, visual rating after 12 to 14 days
In short: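 Postemergence sprays were applied to plants 2 to 18 cm tall (1- to 4-leaf stage); in the flooded paddy test, barnyardgrass was grown to the 2-leaf stage. After 12 to 14 days in a greenhouse, injury was visually rated against untreated controls on a 0–100 scale (100 = complete control).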

[2] = test system: rice; test: Test C flooded paddy test; format: in vivo, Oryza sativa; settings: for Plant response rating, Rice: 500 g ai/ha, visual rating after 12 to 14 days
In short: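 Injury scored visually against controls on a 0 (no effect) to 100 (complete control) scale, 12 to 14 days after treatment in greenhouse. Flooded paddy plants treated at 2-leaf stage; postemergence plants at 1- to 4-leaf stage, 2 to 18 cm tall.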

[3] = test system: rice; test: Test B pre-/postemergence herbicide test; format: in vivo, Oryza sativa; settings: preemergence
In short: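 Greenhouse pot assay with simultaneous preemergence (treated seed) and postemergence (2–18 cm seedlings) applications of surfactant-containing, non-phytotoxic solvent formulations. Response scored visually 13–15 days later on a 0–100 scale, 100 meaning complete control.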

[4] = test system: morningglory; test: Test A pre-/postemergence herbicide test; format: in vivo, Ipomoea spp.
In short: (§1)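 Seeds sown in sandy loam received a preemergence directed soil spray of compound in non-phytotoxic solvent with surfactant; postemergence plants (2–10 cm, one- to two-leaf stage) were sprayed to runoff at the same time. After ~10 days in greenhouse, injury was rated visually versus untreated controls (0 = no effect, 100 = complete control).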

[5] = test system: velvetleaf; test: Test A pre-/postemergence herbicide test; format: in vivo, Abutilon theophrasti
In short: as §1

[6] = test system: common ragweed; test: Test C pre-/postemergence herbicide test; format: in vivo, Ambrosia elatior; parameters: key to Plant response rating, Ragweed: 0 = no effect, 100 = complete control; settings: for Ragweed plant response rating: 500 g ai/ha
In short: (§2)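 Seeds were planted and sprayed preemergence with test chemicals in a non-phytotoxic solvent mixture containing surfactant; postemergence treatments went onto plants 2 to 18 cm tall (1- to 4-leaf stage). After 12 to 14 days in a greenhouse, injury was rated visually against untreated controls on a 0–100 scale.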

[7] = test system: giant foxtail; test: Test C pre-/postemergence herbicide test; format: in vivo, Setaria faberi; settings: for Foxtail, Giant plant response rating: 500 g ai/ha
In short: as §2

[8] = 62 g ai/ha, scale 0 to 100 (0 no effect, 100 complete control)
[9] = 125 g ai/ha, scale of 0 to 100, 0 is no effect, 100 is complete control
[10] = 250 g ai/ha, scale of 0 to 100, 0 is no effect, 100 is complete control
[11] = scale 0 to 100 (0 no effect, 100 complete control)
[12] = 125 g ai/ha, 0 to 100 scale, 0 is no effect, 100 is complete control
[13] = Postemergence, 500 g ai/ha, 0 to 100 scale, 0 no effect, 100 complete control
[14] = Postemergence, 2000 g ai/ha, 0 to 100 scale, 0 no effect, 100 complete control
[15] = Preemergence, 500 g ai/ha, visual rating, 0 to 100 scale (0 no effect, 100 complete control)
[16] = Preemergence, 2000 g ai/ha, 0 to 100 scale, 0 no effect, 100 complete control
[17] = Preemergence, 2000 g ai/ha, visual rating, 0 to 100 scale (0 no effect, 100 complete control)
[18] = Postemergence, 250 g ai/ha, scale 0 to 100, 0 no effect, 100 complete control
[19] = postemergence, 125 g ai/ha, scale 0 to 100
[20] = postemergence, 62 g ai/ha, scale 0 to 100
[21] = 125 g ai/ha, scale 0 to 100 (0 no effect, 100 complete control)
[22] = 125 g ai/ha, 0 = no effect, 100 = complete control
[23] = 500 g ai/ha, visual rating, 0 = no effect, 100 = complete control
[24] = preemergence, 500 g ai/ha, visual injury, 0 to 100 scale (0 no effect, 100 complete control)

CCn1nc(C(C)(C)C)cc1C(=O)Nc1cccc(C(=O)NOC)c1 [Compound 67]
Barnyardgrass plant response rating [1, 8]: 0 | Barnyardgrass plant response rating [1, 9]: 0 | Barnyardgrass plant response rating [1, 10]: 10 | Plant response rating, Barnyardgrass [1, 11]: 25 | Rice plant response rating [2, 8]: 0 | Rice plant response rating [2, 9]: 0 | Rice plant response rating [2, 10]: 0 | Plant response rating, Rice [2, 11]: 30 | Plant response rating, Rice [3, 12]: 0 | Plant response rating, Morningglory [4, 13]: 5 | Plant response rating, Morningglory [4, 14]: 20 | Morningglory plant response rating [4, 15]: 0 | Morningglory plant response rating [4, 16]: 30 | Plant response rating, Velvetleaf [5, 14]: 15 | Velvetleaf plant response rating [5, 15]: 30 | Velvetleaf plant response rating [5, 17]: 75

CCn1nc(C(C)(C)C)cc1C(=O)Nc1cccc(C(=O)OC)c1 [Compound 81]
Barnyardgrass plant response rating [1, 8]: 0 | Barnyardgrass plant response rating [1, 9]: 0 | Barnyardgrass plant response rating [1, 10]: 0 | Plant response rating, Barnyardgrass [1, 11]: 30 | Plant response rating, Ragweed [6, 18]: 60 | Plant response rating, Ragweed [6, 19]: 60 | Plant response rating, Ragweed [6, 20]: 40 | Rice plant response rating [2, 8]: 20 | Rice plant response rating [2, 9]: 20 | Rice plant response rating [2, 10]: 30 | Plant response rating, Rice [2, 11]: 40 | Plant response rating, Rice [3, 12]: 0 | Plant response rating, Foxtail, Giant [7, 18]: 20 | Plant response rating, Foxtail, Giant [7, 19]: 10 | Plant response rating, Foxtail, Giant [7, 20]: 10

C#CCOC(=O)c1cccc(NC(=O)c2cc(C(C)(C)C)nn2CC)c1 [Compound 84]
Ragweed plant response rating ([6]; Postemergence, scale 0 to 100): 0 | Plant response rating, Ragweed [6, 18]: 0 | Plant response rating, Ragweed [6, 19]: 0 | Plant response rating, Ragweed [6, 20]: 0 | Plant response rating, Rice [3, 12]: 0 | Morningglory plant response rating [4, 13]: 5 | Plant response rating, Morningglory [4, 14]: 10 | Morningglory plant response rating [4, 15]: 0 | Velvetleaf plant response rating [5, 13]: 20 | Plant response rating, Velvetleaf [5, 14]: 20 | Velvetleaf plant response rating [5, 15]: 0 | Velvetleaf plant response rating [5, 17]: 0 | Foxtail, Giant plant response rating ([7]; Postemergence, scale 0 to 100): 0 | Plant response rating, Foxtail, Giant [7, 18]: 0 | Plant response rating, Foxtail, Giant [7, 19]: 0 | Plant response rating, Foxtail, Giant [7, 20]: 0

C=CCOC(=O)c1cccc(NC(=O)c2cc(C(C)(C)C)nn2CC)c1 [Compound 85]
Ragweed plant response rating ([6]; Postemergence, scale 0 to 100): 60 | Plant response rating, Ragweed [6, 18]: 40 | Plant response rating, Ragweed [6, 19]: 10 | Plant response rating, Ragweed [6, 20]: 10 | Plant response rating, Rice [3, 12]: 0 | Morningglory plant response rating [4, 13]: 20 | Plant response rating, Morningglory [4, 14]: 25 | Morningglory plant response rating [4, 15]: 0 | Morningglory plant response rating [4, 16]: 5 | Velvetleaf plant response rating [5, 13]: 30 | Plant response rating, Velvetleaf [5, 14]: 20 | Velvetleaf plant response rating [5, 15]: 0 | Velvetleaf plant response rating [5, 17]: 0 | Foxtail, Giant plant response rating ([7]; Postemergence, scale 0 to 100): 70 | Plant response rating, Foxtail, Giant [7, 18]: 50 | Plant response rating, Foxtail, Giant [7, 19]: 20 | Plant response rating, Foxtail, Giant [7, 20]: 10

C=CCn1nc(C(C)(C)C)cc1C(=O)Nc1cccc(C(C)=NO)c1 [Compound 117]
Barnyardgrass plant response rating [1, 8]: 10 | Barnyardgrass plant response rating [1, 9]: 20 | Barnyardgrass plant response rating [1, 10]: 50 | Plant response rating, Barnyardgrass [1, 11]: 50 | Rice plant response rating [2, 8]: 0 | Rice plant response rating [2, 9]: 15 | Rice plant response rating [2, 10]: 45 | Plant response rating, Rice [2, 11]: 65 | Plant response rating, Rice [3, 12]: 20 | Morningglory plant response rating [4, 13]: 20 | Plant response rating, Morningglory [4, 14]: 70 | Morningglory plant response rating [4, 15]: 45 | Morningglory plant response rating [4, 17]: 75 | Velvetleaf plant response rating [5, 13]: 50 | Plant response rating, Velvetleaf [5, 14]: 65 | Velvetleaf plant response rating [5, 15]: 50 | Velvetleaf plant response rating [5, 17]: 65

CCn1nc(C(C)(C)C)cc1C(=O)Nc1cccc(OC(F)(F)F)c1 [Compound 272]
Barnyardgrass plant response rating [1, 8]: 0 | Barnyardgrass plant response rating [1, 21]: 0 | Barnyardgrass plant response rating [1, 10]: 10 | Plant response rating, Barnyardgrass [1, 11]: 30 | Ragweed plant response rating ([6]; Postemergence, scale 0 to 100): 95 | Plant response rating, Ragweed [6, 18]: 80 | Plant response rating, Ragweed [6, 19]: 65 | Plant response rating, Ragweed [6, 20]: 60 | Rice plant response rating ([2]; 62 g ai/ha, scale 0 to 100): 0 | Rice plant response rating [2, 21]: 10 | Rice plant response rating [2, 10]: 15 | Plant response rating, Rice [2, 11]: 20 | Rice plant response rating (0 to 100 scale) [3, 22]: 0 | Plant response rating, Rice [3, 23]: 20 | Morningglory plant response rating [4, 13]: 100 | Plant response rating, Morningglory [4, 14]: 100 | Morningglory plant response rating [4, 17]: 55 | Morningglory plant response rating [4, 24]: 20 | Velvetleaf plant response rating [5, 13]: 100 | Plant response rating, Velvetleaf [5, 14]: 100 | Velvetleaf plant response rating [5, 17]: 60 | Velvetleaf plant response rating [5, 24]: 15 | Foxtail, Giant plant response rating ([7]; Postemergence, scale 0 to 100): 75 | Plant response rating, Foxtail, Giant [7, 18]: 60 | Plant response rating, Foxtail, Giant [7, 19]: 45 | Plant response rating, Foxtail, Giant [7, 20]: 15

CCn1nc(C(C)(C)C)cc1C(=O)Nc1cccc(OC(C)C)c1 [Compound 273]
Barnyardgrass plant response rating [1, 8]: 20 | Barnyardgrass plant response rating [1, 21]: 40 | Barnyardgrass plant response rating [1, 10]: 60 | Plant response rating, Barnyardgrass [1, 11]: 70 | Rice plant response rating ([2]; 62 g ai/ha, scale 0 to 100): 10 | Rice plant response rating [2, 21]: 40 | Rice plant response rating [2, 10]: 50 | Plant response rating, Rice [2, 11]: 60 | Rice plant response rating (0 to 100 scale) [3, 22]: 0 | Plant response rating, Rice [3, 23]: 40 | Morningglory plant response rating [4, 13]: 70 | Plant response rating, Morningglory [4, 14]: 75 | Morningglory plant response rating [4, 17]: 80 | Morningglory plant response rating [4, 24]: 45 | Velvetleaf plant response rating [5, 13]: 90 | Plant response rating, Velvetleaf [5, 14]: 95 | Velvetleaf plant response rating [5, 17]: 75 | Velvetleaf plant response rating [5, 24]: 60

CCn1nc(C(C)(C)C)cc1C(=O)Nc1cccc(C(=O)N2CC=CC2)c1 [Compound 286]
Barnyardgrass plant response rating [1, 8]: 40 | Barnyardgrass plant response rating [1, 21]: 55 | Barnyardgrass plant response rating [1, 10]: 70 | Plant response rating, Barnyardgrass [1, 11]: 80 | Rice plant response rating ([2]; 62 g ai/ha, scale 0 to 100): 45 | Rice plant response rating [2, 21]: 55 | Rice plant response rating [2, 10]: 65 | Plant response rating, Rice [2, 11]: 75 | Rice plant response rating (0 to 100 scale) [3, 22]: 30 | Plant response rating, Rice [3, 23]: 80 | Morningglory plant response rating [4, 13]: 20 | Plant response rating, Morningglory [4, 14]: 35 | Morningglory plant response rating [4, 17]: 40 | Morningglory plant response rating [4, 24]: 30 | Velvetleaf plant response rating [5, 13]: 30 | Plant response rating, Velvetleaf [5, 14]: 50 | Velvetleaf plant response rating [5, 17]: 70 | Velvetleaf plant response rating [5, 24]: 20
